In ChEMBL document CHEMBL5042502, “Discovery of Potent and Selective 2-(Benzylthio)pyrimidine-based DCN1-UBC12 Inhibitors for Anticardiac Fibrotic Effects” (J Med Chem, 2022):
pIC50, pKi: −log10 of the molar value. Active and inactive are the calls of the source. No cut-off for these calls is given here.

Tests used:
DCN1-like protein 1 [1] = target: T1, DCN1-like protein 1 (Homo sapiens, UniProt Q96GG9); assay: Inhibition of GST-tagged DCN1 (unknown origin) using AcUBE2M1-21 incubated for 30 mins by HTRF assay
Target sequence in this assay (Q96GG9 whole entry): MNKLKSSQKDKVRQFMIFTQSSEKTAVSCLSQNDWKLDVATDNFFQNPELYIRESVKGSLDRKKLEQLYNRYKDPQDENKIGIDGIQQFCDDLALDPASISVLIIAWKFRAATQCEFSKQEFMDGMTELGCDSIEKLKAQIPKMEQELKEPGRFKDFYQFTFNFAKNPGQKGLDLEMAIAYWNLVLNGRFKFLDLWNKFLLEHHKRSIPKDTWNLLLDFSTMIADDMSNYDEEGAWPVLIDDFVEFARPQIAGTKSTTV

[2] = Cytotoxicity against Sprague-Dawley rat cardiac fibroblast by MTT assay; assay type: toxicity, cell-based, Fibroblast of cardiac tissue; conditions: cardiac fibroblasts
DCN1-like protein 1 [3] = target: T1, DCN1-like protein 1
Target sequence in this assay (Q96GG9 whole entry, looked up): as the sequence (Q96GG9 whole entry) above
Description: Binding affinity to DCN1 (unknown origin) assessed as change in entropy by MM-PBSA method

DCN1-like protein 1 [4] = target: T1, DCN1-like protein 1; remark: listed apart in the source
Target sequence in this assay (Q96GG9 whole entry, looked up): as the sequence (Q96GG9 whole entry) above
Description: Binding affinity to DCN1 (unknown origin) assessed as Gibbs free energy change by MM-PBSA method

[5] = system: Fibroblast of cardiac tissue; assay: Antifibrotic effect in SD rat cardiac fibroblast assessed as reduction in Ang II-induced activation of Nrf2 signaling pathway preincubated for 2 hrs followed by Ang II-stimulation and further incubated for 24 hrs by western blot analysis (reference value: 43 %); assay type: functional; conditions: time 26.0 hrs
[6] = system: Fibroblast of cardiac tissue; assay: Antifibrotic effect in SD rat cardiac fibroblast assessed as reduction in Ang II-induced collagen I upregulation preincubated for 2 hrs followed by Ang II-stimulation and further incubated for 24 hrs by western blot analysis (reference value: 71 %); assay type: functional; conditions: time 26.0 hrs
DCN1-like protein 3 = target: T2, DCN1-like protein 3 (Homo sapiens, UniProt Q8IWE4); assay: Binding affinity to DCN3 (unknown origin) assessed as inhibitory constant
T2 sequence (Q8IWE4 whole entry): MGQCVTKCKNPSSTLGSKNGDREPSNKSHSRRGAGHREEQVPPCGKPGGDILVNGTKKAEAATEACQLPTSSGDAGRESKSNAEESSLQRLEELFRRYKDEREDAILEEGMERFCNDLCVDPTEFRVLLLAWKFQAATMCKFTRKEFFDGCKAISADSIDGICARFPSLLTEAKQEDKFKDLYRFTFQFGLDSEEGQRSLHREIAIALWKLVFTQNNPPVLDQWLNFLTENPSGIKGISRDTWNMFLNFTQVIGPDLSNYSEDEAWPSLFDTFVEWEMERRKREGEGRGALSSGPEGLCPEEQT

DCN1-like protein 5 = target: T3, DCN1-like protein 5 (Homo sapiens, UniProt Q9BTE7); assay: Binding affinity to DCN5 (unknown origin) assessed as inhibitory constant
T3 sequence (Q9BTE7 whole entry): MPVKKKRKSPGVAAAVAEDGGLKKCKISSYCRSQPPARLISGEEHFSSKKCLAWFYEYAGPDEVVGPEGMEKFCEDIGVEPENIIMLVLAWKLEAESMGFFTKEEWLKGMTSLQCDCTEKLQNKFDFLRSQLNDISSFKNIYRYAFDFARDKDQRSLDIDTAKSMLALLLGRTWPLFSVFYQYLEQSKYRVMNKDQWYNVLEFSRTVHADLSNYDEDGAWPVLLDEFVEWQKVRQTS

Cardiac fibroblast = assay: Inhibition of DCN1 in Sprague-Dawley rat cardiac fibroblast assessed as suppression in DCN1-UBC12 interaction by measuring reduction in UBC12 level at 10 uM incubated for 5 hrs co-incubated with DCN1 antibody by co-immunoprecipitation pull down assay; assay type: cell-based
DCN1-like protein 2 = DCN1-like protein 2 (Homo sapiens, UniProt Q6PH85); assay: Binding affinity to DCN2 (unknown origin) assessed as inhibitory constant
Chain of DCN1-like protein 2 (Q6PH85 whole entry): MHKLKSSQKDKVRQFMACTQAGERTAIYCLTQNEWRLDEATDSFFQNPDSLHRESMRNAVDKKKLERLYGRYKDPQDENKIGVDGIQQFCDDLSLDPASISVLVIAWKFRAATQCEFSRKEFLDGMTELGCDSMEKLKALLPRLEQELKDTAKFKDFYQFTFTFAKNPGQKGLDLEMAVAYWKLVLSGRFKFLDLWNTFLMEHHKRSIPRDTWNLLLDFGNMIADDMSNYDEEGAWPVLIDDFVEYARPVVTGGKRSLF

SMILES: COc1ccc(-c2nc(SCc3ccc(C)cc3)nc(Sc3nccs3)c2C#N)cc1
- pIC50 (DCN1-like protein 1 [1]): 7.67

SMILES: COc1cc(-c2nc(SCc3cccc(C)c3)nc(Sc3nnnn3CCN(C)C)c2C#N)cc(OC)c1OC
- pIC50 (DCN1-like protein 1 [1]): 7.91

SMILES: COc1ccc(CNc2nc(Sc3nnnn3C)cc(-c3cc(OC)c(OC)c(OC)c3)n2)cc1
- pIC50 (DCN1-like protein 1 [1]): 5.38

SMILES: COc1cc(-c2nc(SCC(=O)NC(=O)Nc3ccccc3)nc(Sc3nccs3)c2C#N)cc(OC)c1OC
- pIC50 (DCN1-like protein 1 [1]): 5.21

SMILES: COc1cc(-c2nc(SCc3ccccc3)nc(NC(C)(C)N3CCOCC3)c2C#N)cc(OC)c1OC
- pIC50 (DCN1-like protein 1 [1]): < 5.00

SMILES: COC(=O)c1ccc(CSc2nc(Sc3nccs3)c(C#N)c(-c3cc(OC)c(OC)c(OC)c3)n2)cc1
- pIC50 (DCN1-like protein 1 [1]): 8.27

SMILES: COc1cc(-c2nc(SCc3ccc(C(F)(F)F)cc3)nc(Sc3nccs3)c2C#N)cc(OC)c1OC
- pIC50 (DCN1-like protein 1 [1]): 7.00

SMILES: COc1cc(-c2nc(SCc3ccc4ccccc4c3)nc(Sc3nccs3)c2C#N)cc(OC)c1OC
- pIC50 (DCN1-like protein 1 [1]): 7.44
- pIC50 [2]: 4.64

SMILES: COc1cc(-c2nc(SCc3ccccc3)nc(Sc3nc(C)c(C)s3)c2C#N)cc(OC)c1OC
- pIC50 (DCN1-like protein 1 [1]): < 5.00

SMILES: Cc1ccc(CSc2nc(Sc3nccs3)c(C#N)c(-c3ccccc3)n2)cc1
- pIC50 (DCN1-like protein 1 [1]): 5.55

SMILES: COc1cc(-c2nc(SCc3ccc(C)cc3)nc(Sc3nnnn3CCN(C)C)c2C#N)cc(OC)c1OC
- pIC50 (DCN1-like protein 1 [1]): 8.03
- pIC50 [2]: 4.58

SMILES: C#CCSc1nc(Sc2nnnn2C)c(C#N)c(-c2cc(OC)c(OC)c(OC)c2)n1
- pIC50 (DCN1-like protein 1 [1]): 9.60
- -TdeltaS (DCN1-like protein 1 [3]): 10.8 kcal/mol
- deltaG (DCN1-like protein 1 [4]): -10.3 kcal/mol

SMILES: Cc1ccc(CSc2nc(Sc3nccs3)c(C#N)c(-c3cccc(C)c3)n2)cc1
- pIC50 (DCN1-like protein 1 [1]): 5.77

SMILES: COc1ccc(-c2nc(SCc3ccc(C)cc3)nc(Sc3nccs3)c2C#N)cc1OC
- pIC50 (DCN1-like protein 1 [1]): 7.77

SMILES: Cc1ccc(CSc2nc(Sc3nccs3)c(C#N)c(-c3c[nH]c4ccccc34)n2)cc1
- pIC50 (DCN1-like protein 1 [1]): < 5.00

SMILES: COc1cc(-c2nc(SCc3ccc(C(F)(F)F)cc3)nc(Sc3nnnn3C)c2C#N)cc(OC)c1OC
- pIC50 (DCN1-like protein 1 [1]): 7.54

SMILES: COc1cc(-c2nc(SCc3ccc(C)cc3)nc(Sc3nccs3)c2C#N)cc(OC)c1OC
- pIC50 (DCN1-like protein 1 [1]): 7.37
- pIC50 [2]: 5.21

SMILES: COc1ccc(CSc2nc(Sc3nnnn3C)c(C#N)c(-c3cc(OC)c(OC)c(OC)c3)n2)cc1
- pIC50 (DCN1-like protein 1 [1]): 7.51

SMILES: COc1cc(-c2nc(SCc3ccc4ccccc4c3)nc(Sc3nnnn3CCN(C)C)c2C#N)cc(OC)c1OC
- pIC50 (DCN1-like protein 1 [1]): 8.65
- pIC50 [2]: 4.59

SMILES: COc1cc(-c2nc(SCc3ccc(Cl)cc3)nc(Sc3nnnn3CCN(C)C)c2C#N)cc(OC)c1OC
- pIC50 (DCN1-like protein 1 [1]): 7.60

SMILES: COc1cc(-c2nc(SCc3ccc(C(C)(C)C)cc3)nc(Sc3nnnn3C)c2C#N)cc(OC)c1OC
- pIC50 (DCN1-like protein 1 [1]): 5.91

SMILES: COc1cc(-c2nc(SCc3ccccc3)nc(Nc3ccc(Cl)cc3)c2C#N)cc(OC)c1OC
- pIC50 (DCN1-like protein 1 [1]): < 5.00

SMILES: Cc1ccc(CSc2nc(Sc3nccs3)c(C#N)c(-c3ccc(C)cc3)n2)cc1
- pIC50 (DCN1-like protein 1 [1]): 7.68

SMILES: COc1cc(-c2nc(SCc3ccccc3)nc(Nc3ccc(O)c(Cl)c3)c2C#N)cc(OC)c1OC
- pIC50 (DCN1-like protein 1 [1]): < 5.00

SMILES: COc1cc(-c2nc(SCc3ccc(C(C)(C)C)cc3)nc(Sc3nccs3)c2C#N)cc(OC)c1OC
- pIC50 (DCN1-like protein 1 [1]): 7.94

SMILES: COc1cc(-c2nc(SCc3ccc(C)cc3)nc(Sc3nnnn3C)c2C#N)cc(OC)c1OC
- pIC50 (DCN1-like protein 1 [1]): 8.54
- pIC50 [2]: 5.00

SMILES: COc1cc(-c2nc(SCC(=O)Nc3ccccc3)nc(Sc3nccs3)c2C#N)cc(OC)c1OC
- pIC50 (DCN1-like protein 1 [1]): 5.10

SMILES: COc1cc(-c2nc(SCc3ccc(Cl)cc3)nc(Sc3nccs3)c2C#N)cc(OC)c1OC
- pIC50 (DCN1-like protein 1 [1]): 7.61

SMILES: COc1cc(-c2nc(SCc3ccccc3)nc(Sc3nnnn3CCN(C)C)c2C#N)cc(OC)c1OC
- pIC50 (DCN1-like protein 1 [1]): 7.55

SMILES: COc1cc(-c2nc(SCc3ccccc3C)nc(Sc3nccs3)c2C#N)cc(OC)c1OC
- pIC50 (DCN1-like protein 1 [1]): 6.05

SMILES: COc1cc(-c2nc(SCc3ccc(C(F)(F)F)cc3)nc(Sc3nnnn3CCN(C)C)c2C#N)cc(OC)c1OC
- pIC50 (DCN1-like protein 1 [1]): 7.22

SMILES: COc1cc(-c2cc(Sc3nnnn3C)nc(SCc3ccc(Cl)cc3)n2)cc(OC)c1OC
- pIC50 (DCN1-like protein 1 [1]): 5.02
- -TdeltaS (DCN1-like protein 1 [3]): 10.6 kcal/mol
- inhibition [5]: inactive
- inhibition [6]: inactive
- deltaG (DCN1-like protein 1 [4]): -7.12 kcal/mol

SMILES: COc1ccc(Nc2nc(SCc3ccccc3)nc(-c3cc(OC)c(OC)c(OC)c3)c2C#N)cc1
- pIC50 (DCN1-like protein 1 [1]): < 5.00

SMILES: COc1cc(-c2nc(SCc3cccc(C)c3)nc(Sc3nnnn3C)c2C#N)cc(OC)c1OC
- pIC50 (DCN1-like protein 1 [1]): 7.96

SMILES: CCCSc1nc(Sc2nccs2)c(C#N)c(-c2cc(OC)c(OC)c(OC)c2)n1
- pIC50 (DCN1-like protein 1 [1]): 6.59

SMILES: COc1cc(-c2nc(SCc3ccc4ccccc4c3)nc(Sc3nnnn3C)c2C#N)cc(OC)c1OC
- pIC50 (DCN1-like protein 1 [1]): 8.21
- pIC50 [2]: 4.72

SMILES: COc1cc(-c2nc(SCc3nc4ccccc4[nH]3)nc(Sc3nccs3)c2C#N)cc(OC)c1OC
- pIC50 (DCN1-like protein 1 [1]): 6.09

SMILES: Cc1ccc(CSc2nc(Sc3nccs3)c(C#N)c(-c3ccccc3C)n2)cc1
- pIC50 (DCN1-like protein 1 [1]): 6.33

SMILES: COc1cc(-c2nc(SCc3ccccc3)nc(NCc3nccs3)c2C#N)cc(OC)c1OC
- pIC50 (DCN1-like protein 1 [1]): < 5.00

SMILES: COc1cc(-c2nc(SCC3CCCCC3)nc(Sc3nccs3)c2C#N)cc(OC)c1OC
- pIC50 (DCN1-like protein 1 [1]): 6.21

SMILES: COc1cc(-c2nc(SCCc3ccccc3)nc(Sc3nccs3)c2C#N)cc(OC)c1OC
- pIC50 (DCN1-like protein 1 [1]): 5.59

SMILES: C#CCSc1nc(Sc2nccs2)c(C#N)c(-c2ccc(C)cc2)n1
- pKi (DCN1-like protein 3): 3.23
- pIC50 (DCN1-like protein 1 [1]): 7.74
- pKi (DCN1-like protein 5): 5.67
- inhibition (Cardiac fibroblast): Dose-Dependent Effect
- pKi (DCN1-like protein 2): 4.18
- pIC50 [2]: 4.90

SMILES: C=CCSc1nc(Sc2nccs2)c(C#N)c(-c2cc(OC)c(OC)c(OC)c2)n1
- pIC50 (DCN1-like protein 1 [1]): 7.43

SMILES: COc1cc(-c2nc(SCc3ccccc3)nc(Sc3nc(C)cs3)c2C#N)cc(OC)c1OC
- pIC50 (DCN1-like protein 1 [1]): 7.39

SMILES: Cc1ccc(CSc2nc(Sc3nccs3)c(C#N)c(-c3cccs3)n2)cc1
- pIC50 (DCN1-like protein 1 [1]): < 5.00

SMILES: Cc1ccc(CSc2nc(Sc3nccs3)c(C#N)c(-c3ccc(Br)cc3)n2)cc1
- pIC50 (DCN1-like protein 1 [1]): 7.55

SMILES: COc1cc(-c2nc(SCc3c(C)noc3C)nc(Sc3nccs3)c2C#N)cc(OC)c1OC
- pIC50 (DCN1-like protein 1 [1]): 6.38

SMILES: COc1cc(-c2nc(SCc3cccc(C(F)(F)F)c3)nc(Sc3nnnn3C)c2C#N)cc(OC)c1OC
- pIC50 (DCN1-like protein 1 [1]): 7.59

SMILES: COc1cc(-c2nc(SCc3cccc(C)c3)nc(Sc3nccs3)c2C#N)cc(OC)c1OC
- pIC50 (DCN1-like protein 1 [1]): 8.26
- pIC50 [2]: 4.81

SMILES: Cc1ccc(CSc2nc(Sc3nccs3)c(C#N)c(-c3ccc(Cl)cc3)n2)cc1
- pIC50 (DCN1-like protein 1 [1]): 7.18

SMILES: COc1cc(-c2nc(SCc3cccc(C(F)(F)F)c3)nc(Sc3nccs3)c2C#N)cc(OC)c1OC
- pIC50 (DCN1-like protein 1 [1]): 7.53

SMILES: COc1cc(-c2nc(SCc3ccncc3)nc(Sc3nccs3)c2C#N)cc(OC)c1OC
- pIC50 (DCN1-like protein 1 [1]): 6.18

SMILES: Cc1ccc(CSc2nc(Sc3nccs3)c(C#N)c(-c3ccc(Oc4ccccc4)cc3)n2)cc1
- pIC50 (DCN1-like protein 1 [1]): 5.99

SMILES: COc1cc(-c2nc(SCc3ccccc3)nc(Sc3nnnn3C)c2C#N)cc(OC)c1OC
- pIC50 (DCN1-like protein 1 [1]): 7.44

SMILES: COc1cc(-c2nc(SCc3ccoc3C(F)(F)F)nc(Sc3nccs3)c2C#N)cc(OC)c1OC
- pIC50 (DCN1-like protein 1 [1]): 6.35

SMILES: COc1ccc(CSc2nc(Sc3nnnn3CCN(C)C)c(C#N)c(-c3cc(OC)c(OC)c(OC)c3)n2)cc1
- pIC50 (DCN1-like protein 1 [1]): 7.87

SMILES: COc1cc(-c2nc(SCc3cccc(C(F)(F)F)c3)nc(Sc3nnnn3CCN(C)C)c2C#N)cc(OC)c1OC
- pIC50 (DCN1-like protein 1 [1]): 7.92

SMILES: COc1ccc(CSc2nc(Sc3nccs3)c(C#N)c(-c3cc(OC)c(OC)c(OC)c3)n2)cc1
- pIC50 (DCN1-like protein 1 [1]): 5.59

SMILES: COc1cc(-c2nc(SCc3ccccc3)nc(Nc3cccc(Cl)c3)c2C#N)cc(OC)c1OC
- pIC50 (DCN1-like protein 1 [1]): 5.62

SMILES: COc1cc(-c2nc(SCc3ccccc3)nc(Sc3nccs3)c2C#N)cc(OC)c1OC
- pIC50 (DCN1-like protein 1 [1]): 7.55
